# Data taken from patent US7834187B2, “Crystalline variable hydrate of (S)-6-(4-(2-((3-9H-carbazol-4-yloxy)-2-hydroxypropyl)amino)-2-methylpropyl)phenoxy)-3-pyridinecarbox amide hemisuccinate salt” (Eli Lilly and Company, priority 2004, dated 2010).
# Legend:
# [1] = Moisture sorption analysis; assay type: physicochemical; details: between 10 and 80% relative humidity
# Excerpt: Various methods, including moisture sorption analysis, Karl Fischer analysis, X-ray powder diffraction (XRD) and ^13C solid-state nuclear magnetic resonance (SSNMR), are used to characterize SAM Classic Hydrate.
# The SAM Classic Hydrate crystal structure retains approximately 6-11% water between 10 and 80% relative humidity. The hydrate rapidly equilibrates with the atmosphere, such that the water content observed by analytical techniques is a function of the relative humidity at which the sample was equilabrated.
# B3 receptor = B3 receptor (Homo sapiens, UniProt P13945); details: single dose; as described in WO 98/09625; cited from earlier work
# Sequence of B3 receptor (P13945 whole entry): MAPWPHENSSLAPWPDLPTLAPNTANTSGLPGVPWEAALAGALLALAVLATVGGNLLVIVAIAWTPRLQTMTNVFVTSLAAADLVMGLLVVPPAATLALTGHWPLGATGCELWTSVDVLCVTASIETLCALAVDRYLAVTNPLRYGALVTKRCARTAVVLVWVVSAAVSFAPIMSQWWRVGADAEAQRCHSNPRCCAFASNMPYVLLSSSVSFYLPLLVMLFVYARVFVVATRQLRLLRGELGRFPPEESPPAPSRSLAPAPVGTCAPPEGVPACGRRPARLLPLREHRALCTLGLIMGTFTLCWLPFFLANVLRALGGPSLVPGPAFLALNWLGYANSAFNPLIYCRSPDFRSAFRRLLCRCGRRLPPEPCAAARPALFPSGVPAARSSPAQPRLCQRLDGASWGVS
water retained by the crystal structure (moisture sorption profile) [1],SMILES,% of isoproterenol's response (B3 receptor)
6-11%,"CC(C)(Cc1ccc(Oc2ccc(C(N)=O)cn2)cc1)NC[C@H](O)COc1cccc2[nH]c3ccccc3c12.CC(C)(Cc1ccc(Oc2ccc(C(N)=O)cn2)cc1)NC[C@H](O)COc1cccc2[nH]c3ccccc3c12.O=C(O)CCC(=O)O [SAM Classic Hydrate, (S)-(3-pyridinecarboxamide,6-[4-[2-[[3-(9H-carbazol-4-yloxy)-2-hydroxypropyl]amino]-2-methylpropyl]phenoxy])-hemi-succinate salt]",–
–,CC(C)(Cc1ccc(Oc2ccc(C(N)=O)cn2)cc1)NC[C@H](O)COc1cccc2[nH]c3ccccc3c12 [SAM Classic free base],at least 30%
